Measurements taken from PMC5791972 (PLoS ONE, 2018).
Where two headings read alike, the source gives them in different places.

How the values were obtained:
hTRPV1 = target: T1, hTRPV1 (Homo sapiens, UniProt Q8NER1); test: Ion channel selectivity patch clamp; format: cell-based
T1 construct: The cDNAs for various full-length ion channels were subcloned into pcDNA5/TO; expressed in transfected cells; host or cells: T-REx-293 (general cell paragraph)

hTRPA1 = target: T2, hTRPA1 (Homo sapiens, UniProt O75762); test: Ion channel selectivity patch clamp; format: cell-based
T2 construct: The cDNAs for various full-length ion channels were subcloned into pcDNA5/TO; expressed in transfected cells; host or cells: T-REx-293 (general cell paragraph)

α2B (h) = target: T3, α2B (h) (Homo sapiens, UniProt P18089); test: biochemical; format: binding; details: 1.0E-06 M
T3 construct: host or cells: CHO cells
T3 sequence (P18089 1-450): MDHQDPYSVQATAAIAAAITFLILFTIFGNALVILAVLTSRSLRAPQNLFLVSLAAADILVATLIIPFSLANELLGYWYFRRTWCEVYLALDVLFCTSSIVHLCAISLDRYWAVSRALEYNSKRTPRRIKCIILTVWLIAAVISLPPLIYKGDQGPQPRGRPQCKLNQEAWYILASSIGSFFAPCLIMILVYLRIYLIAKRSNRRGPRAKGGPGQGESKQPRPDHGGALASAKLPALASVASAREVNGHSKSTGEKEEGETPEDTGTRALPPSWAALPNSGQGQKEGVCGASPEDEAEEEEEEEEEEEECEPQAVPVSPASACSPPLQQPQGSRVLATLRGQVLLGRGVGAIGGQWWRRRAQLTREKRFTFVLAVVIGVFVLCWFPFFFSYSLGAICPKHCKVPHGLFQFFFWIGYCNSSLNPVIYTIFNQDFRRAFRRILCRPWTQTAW

CB1 (h) = target: T4, CB1 (h) (Homo sapiens, UniProt P21554); format: binding; details: 1.0E-06 M
T4 construct: host or cells: CHO cells
T4 sequence (P21554 whole entry): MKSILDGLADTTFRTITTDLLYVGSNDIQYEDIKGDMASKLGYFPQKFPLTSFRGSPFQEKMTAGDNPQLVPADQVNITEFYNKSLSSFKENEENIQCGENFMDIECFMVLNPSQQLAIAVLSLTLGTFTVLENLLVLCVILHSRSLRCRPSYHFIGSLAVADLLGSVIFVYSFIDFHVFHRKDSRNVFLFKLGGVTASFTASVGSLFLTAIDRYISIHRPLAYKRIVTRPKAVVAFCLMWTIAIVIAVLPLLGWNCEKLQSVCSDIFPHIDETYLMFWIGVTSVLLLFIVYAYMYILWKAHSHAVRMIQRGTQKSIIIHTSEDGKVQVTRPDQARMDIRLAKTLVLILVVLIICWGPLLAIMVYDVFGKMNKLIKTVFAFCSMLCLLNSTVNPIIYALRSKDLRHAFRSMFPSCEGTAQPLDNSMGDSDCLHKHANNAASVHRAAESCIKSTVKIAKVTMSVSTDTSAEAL

D3 (h) = target: T5, D3 (h) (Homo sapiens, UniProt P35462); format: binding
T5 construct: host or cells: CHO cells
T5 sequence (P35462 whole entry): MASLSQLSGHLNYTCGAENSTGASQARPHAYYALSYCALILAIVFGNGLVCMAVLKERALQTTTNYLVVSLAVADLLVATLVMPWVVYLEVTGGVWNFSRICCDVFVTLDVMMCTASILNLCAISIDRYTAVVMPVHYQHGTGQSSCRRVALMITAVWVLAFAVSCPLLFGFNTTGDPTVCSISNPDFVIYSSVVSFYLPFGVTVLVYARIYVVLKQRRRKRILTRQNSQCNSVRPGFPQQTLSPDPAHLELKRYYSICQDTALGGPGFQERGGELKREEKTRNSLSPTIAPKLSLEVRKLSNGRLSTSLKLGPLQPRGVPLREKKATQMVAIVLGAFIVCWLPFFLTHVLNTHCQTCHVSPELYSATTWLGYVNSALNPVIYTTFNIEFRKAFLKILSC

D4.4 (h) = target: T6, D4.4 (h) (Homo sapiens, UniProt P21917); test: biochemical; format: binding; details: 1.0E-06 M
T6 sequence (P21917 1-419): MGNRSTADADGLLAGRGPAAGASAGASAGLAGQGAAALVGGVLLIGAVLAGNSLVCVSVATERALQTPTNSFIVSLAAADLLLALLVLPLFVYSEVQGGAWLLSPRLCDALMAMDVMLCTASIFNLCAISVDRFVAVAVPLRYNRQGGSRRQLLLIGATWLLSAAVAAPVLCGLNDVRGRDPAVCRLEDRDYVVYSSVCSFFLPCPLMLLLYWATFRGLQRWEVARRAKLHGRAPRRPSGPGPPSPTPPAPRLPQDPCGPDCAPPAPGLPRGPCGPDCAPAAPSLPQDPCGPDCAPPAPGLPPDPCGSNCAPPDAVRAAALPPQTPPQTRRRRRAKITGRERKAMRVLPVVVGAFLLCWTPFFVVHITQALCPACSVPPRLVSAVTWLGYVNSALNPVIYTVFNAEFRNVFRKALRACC

H1 (h) = target: T7, H1 (h) (Homo sapiens, UniProt P35367); format: binding; details: 1.0E-06 M
T7 construct: host or cells: HEK-293 cells
T7 sequence (P35367 whole entry): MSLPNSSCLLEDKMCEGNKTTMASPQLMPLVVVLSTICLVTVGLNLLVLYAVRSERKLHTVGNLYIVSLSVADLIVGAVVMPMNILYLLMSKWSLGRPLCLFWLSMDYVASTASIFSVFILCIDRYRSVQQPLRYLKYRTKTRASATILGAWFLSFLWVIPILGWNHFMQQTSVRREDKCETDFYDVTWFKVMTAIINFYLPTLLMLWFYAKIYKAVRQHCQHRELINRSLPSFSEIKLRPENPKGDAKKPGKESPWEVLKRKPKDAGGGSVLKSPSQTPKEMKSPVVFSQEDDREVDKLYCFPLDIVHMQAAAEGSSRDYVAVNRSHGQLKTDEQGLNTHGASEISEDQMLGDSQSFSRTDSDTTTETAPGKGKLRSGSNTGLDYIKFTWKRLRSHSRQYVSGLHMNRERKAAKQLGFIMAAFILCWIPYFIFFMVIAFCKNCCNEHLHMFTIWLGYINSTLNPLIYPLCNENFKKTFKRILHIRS

MT3 (ML2) = target: T8, MT3 (ML2) (Mesocricetus auratus, UniProt A0ABM2YAB8); format: binding, hamster
T8 construct: tissue Cerep; host or cells: hamster brain
T8 sequence (A0ABM2YAB8 1-231): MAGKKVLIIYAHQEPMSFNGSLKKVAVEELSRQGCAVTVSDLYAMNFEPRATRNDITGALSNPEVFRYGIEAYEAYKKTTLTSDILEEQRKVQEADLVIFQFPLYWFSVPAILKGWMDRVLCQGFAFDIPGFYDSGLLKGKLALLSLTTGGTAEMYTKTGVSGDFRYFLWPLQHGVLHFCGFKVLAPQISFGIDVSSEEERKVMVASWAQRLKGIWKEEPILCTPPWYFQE

M5 (h) = target: T9, M5 (h) (Homo sapiens, UniProt P08912); format: binding
T9 construct: host or cells: CHO cells
T9 sequence (P08912 1-532): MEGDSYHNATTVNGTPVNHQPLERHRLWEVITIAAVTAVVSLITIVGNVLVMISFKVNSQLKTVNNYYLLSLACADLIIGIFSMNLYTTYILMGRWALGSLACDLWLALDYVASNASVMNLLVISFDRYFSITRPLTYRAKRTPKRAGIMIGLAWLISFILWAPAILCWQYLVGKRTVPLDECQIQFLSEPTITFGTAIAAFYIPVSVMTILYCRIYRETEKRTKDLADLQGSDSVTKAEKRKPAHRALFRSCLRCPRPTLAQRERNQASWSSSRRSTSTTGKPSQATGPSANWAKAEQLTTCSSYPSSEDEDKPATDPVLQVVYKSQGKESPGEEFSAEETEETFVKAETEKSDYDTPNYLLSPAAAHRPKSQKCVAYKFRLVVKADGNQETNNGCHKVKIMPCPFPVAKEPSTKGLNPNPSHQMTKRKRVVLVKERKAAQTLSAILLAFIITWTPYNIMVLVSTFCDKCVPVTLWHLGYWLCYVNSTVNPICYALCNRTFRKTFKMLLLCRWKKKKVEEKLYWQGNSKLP

5-HT1A (h) = target: T10, 5-HT1A (h) (Homo sapiens, UniProt P08908); format: binding; details: 1.0E-06 M
T10 construct: host or cells: HEK-293 cells
T10 sequence (P08908 1-422): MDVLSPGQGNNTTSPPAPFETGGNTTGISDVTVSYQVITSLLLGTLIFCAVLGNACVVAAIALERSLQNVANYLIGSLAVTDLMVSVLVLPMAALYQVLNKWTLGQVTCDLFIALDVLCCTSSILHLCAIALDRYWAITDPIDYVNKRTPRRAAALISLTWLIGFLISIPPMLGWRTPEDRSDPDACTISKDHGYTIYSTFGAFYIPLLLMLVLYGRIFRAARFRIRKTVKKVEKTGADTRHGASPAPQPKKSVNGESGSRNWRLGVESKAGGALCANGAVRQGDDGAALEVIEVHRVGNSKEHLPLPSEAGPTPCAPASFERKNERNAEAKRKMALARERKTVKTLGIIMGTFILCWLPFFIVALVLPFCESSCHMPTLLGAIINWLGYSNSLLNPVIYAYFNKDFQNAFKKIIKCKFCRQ

Cav1.2 = Cav1.2 (Homo sapiens, UniProt Q13936); test: Ion channel selectivity patch clamp
Sequence of Cav1.2 (Q13936 whole entry): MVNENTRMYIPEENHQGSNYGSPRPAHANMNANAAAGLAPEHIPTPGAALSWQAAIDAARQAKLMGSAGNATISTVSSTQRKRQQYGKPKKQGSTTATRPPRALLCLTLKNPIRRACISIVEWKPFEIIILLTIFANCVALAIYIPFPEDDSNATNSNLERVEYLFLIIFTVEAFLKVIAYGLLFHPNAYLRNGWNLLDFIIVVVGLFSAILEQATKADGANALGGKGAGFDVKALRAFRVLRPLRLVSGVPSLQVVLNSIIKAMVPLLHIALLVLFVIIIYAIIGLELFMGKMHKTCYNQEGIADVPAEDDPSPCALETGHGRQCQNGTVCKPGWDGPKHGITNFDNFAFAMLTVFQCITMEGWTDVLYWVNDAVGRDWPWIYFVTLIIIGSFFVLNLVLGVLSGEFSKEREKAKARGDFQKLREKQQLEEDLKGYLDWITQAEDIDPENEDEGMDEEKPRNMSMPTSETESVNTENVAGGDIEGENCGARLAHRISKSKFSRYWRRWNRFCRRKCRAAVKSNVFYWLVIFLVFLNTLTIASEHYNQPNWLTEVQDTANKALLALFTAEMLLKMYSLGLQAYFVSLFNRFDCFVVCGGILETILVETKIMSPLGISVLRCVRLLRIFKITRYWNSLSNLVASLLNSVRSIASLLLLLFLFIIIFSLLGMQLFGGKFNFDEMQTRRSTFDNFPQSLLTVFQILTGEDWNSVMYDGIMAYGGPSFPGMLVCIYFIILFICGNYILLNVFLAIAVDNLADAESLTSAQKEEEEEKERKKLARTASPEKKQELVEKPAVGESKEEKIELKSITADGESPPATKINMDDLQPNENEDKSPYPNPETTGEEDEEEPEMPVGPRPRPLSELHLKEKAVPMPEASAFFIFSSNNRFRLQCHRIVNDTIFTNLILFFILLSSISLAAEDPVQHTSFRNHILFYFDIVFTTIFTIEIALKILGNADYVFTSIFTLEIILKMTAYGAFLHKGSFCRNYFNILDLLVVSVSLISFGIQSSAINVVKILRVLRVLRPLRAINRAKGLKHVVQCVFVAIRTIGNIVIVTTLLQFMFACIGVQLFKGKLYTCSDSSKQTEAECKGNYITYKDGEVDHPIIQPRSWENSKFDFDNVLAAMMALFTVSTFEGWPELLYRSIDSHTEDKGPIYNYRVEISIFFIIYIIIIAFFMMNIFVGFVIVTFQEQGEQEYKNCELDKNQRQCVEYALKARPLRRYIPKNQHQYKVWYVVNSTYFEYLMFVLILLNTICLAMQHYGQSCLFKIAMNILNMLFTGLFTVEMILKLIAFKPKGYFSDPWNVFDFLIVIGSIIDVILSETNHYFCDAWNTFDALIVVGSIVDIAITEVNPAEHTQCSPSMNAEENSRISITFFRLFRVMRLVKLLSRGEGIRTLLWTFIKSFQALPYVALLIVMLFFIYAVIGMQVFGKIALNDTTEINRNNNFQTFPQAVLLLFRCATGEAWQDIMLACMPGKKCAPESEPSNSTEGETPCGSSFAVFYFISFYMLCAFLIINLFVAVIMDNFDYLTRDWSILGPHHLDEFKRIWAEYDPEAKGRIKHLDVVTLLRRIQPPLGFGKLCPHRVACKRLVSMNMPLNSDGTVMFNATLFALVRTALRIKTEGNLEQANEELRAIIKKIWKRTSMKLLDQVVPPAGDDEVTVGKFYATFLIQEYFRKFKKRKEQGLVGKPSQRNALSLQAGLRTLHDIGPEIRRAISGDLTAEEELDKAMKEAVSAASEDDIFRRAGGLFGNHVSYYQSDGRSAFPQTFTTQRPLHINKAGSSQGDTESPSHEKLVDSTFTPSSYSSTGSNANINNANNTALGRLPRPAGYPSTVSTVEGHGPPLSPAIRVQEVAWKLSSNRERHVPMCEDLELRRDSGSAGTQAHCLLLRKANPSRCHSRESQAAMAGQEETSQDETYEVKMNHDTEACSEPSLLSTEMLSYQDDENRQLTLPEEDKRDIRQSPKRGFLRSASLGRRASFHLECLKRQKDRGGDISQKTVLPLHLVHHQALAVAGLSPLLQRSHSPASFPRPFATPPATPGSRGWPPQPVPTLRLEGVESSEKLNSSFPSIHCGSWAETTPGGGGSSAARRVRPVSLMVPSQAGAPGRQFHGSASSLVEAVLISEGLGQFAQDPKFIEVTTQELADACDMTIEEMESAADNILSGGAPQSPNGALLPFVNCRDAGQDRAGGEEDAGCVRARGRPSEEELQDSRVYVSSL
Sequence of Cav1.2 (Q08289 whole entry partner): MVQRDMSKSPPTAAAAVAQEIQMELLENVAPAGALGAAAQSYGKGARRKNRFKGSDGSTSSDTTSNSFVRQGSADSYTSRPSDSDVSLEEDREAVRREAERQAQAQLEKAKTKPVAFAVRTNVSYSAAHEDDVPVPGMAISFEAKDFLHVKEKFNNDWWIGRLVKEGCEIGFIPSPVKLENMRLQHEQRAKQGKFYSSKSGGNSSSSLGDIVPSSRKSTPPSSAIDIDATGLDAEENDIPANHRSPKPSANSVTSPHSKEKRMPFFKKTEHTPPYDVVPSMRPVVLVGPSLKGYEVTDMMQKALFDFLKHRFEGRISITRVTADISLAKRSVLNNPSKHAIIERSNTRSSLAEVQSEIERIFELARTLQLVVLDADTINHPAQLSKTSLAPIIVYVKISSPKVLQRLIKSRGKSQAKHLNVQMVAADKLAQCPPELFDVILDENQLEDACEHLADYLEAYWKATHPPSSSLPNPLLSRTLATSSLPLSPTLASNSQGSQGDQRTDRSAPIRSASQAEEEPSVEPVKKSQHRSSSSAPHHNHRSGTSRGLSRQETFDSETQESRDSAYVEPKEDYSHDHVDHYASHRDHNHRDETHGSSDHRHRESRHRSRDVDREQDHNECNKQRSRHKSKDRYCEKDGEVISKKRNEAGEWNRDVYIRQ

T1 sequence (Q8NER1 whole entry): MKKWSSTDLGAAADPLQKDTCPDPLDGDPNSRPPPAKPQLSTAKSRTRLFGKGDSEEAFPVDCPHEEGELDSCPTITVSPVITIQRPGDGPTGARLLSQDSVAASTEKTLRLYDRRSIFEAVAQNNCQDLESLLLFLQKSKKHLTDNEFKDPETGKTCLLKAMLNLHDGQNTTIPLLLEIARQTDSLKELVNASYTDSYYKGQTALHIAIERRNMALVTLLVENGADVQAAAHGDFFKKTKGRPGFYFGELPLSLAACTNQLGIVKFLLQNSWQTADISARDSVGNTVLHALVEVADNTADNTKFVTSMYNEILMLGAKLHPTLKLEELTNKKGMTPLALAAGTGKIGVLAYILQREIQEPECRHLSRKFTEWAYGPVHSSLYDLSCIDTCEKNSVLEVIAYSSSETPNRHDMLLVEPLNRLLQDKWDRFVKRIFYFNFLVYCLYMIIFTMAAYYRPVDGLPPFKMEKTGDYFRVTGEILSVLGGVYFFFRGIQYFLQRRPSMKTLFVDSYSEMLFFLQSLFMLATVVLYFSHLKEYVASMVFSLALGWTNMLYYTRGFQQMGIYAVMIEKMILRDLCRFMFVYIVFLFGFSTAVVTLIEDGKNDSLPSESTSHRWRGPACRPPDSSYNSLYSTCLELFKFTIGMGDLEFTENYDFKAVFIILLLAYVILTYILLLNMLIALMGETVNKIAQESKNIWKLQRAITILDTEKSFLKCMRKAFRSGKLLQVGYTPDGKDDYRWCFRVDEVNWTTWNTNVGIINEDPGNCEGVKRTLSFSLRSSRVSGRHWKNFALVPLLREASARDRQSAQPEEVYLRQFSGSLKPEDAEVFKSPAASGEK

Compound | inhibition at 1 µM (α2B (h); read-out: % Inhibition 1st) [%] | inhibition at 1 µM (α2B (h); read-out: % Inhibition 2nd) [%] | inhibition at 1 µM (α2B (h); read-out: % Inhibition Mean) [%] | inhibition at 1 µM (CB1 (h); read-out: % Inhibition 1st) [%] | inhibition at 1 µM (CB1 (h); read-out: % Inhibition 2nd) [%] | inhibition at 1 µM (CB1 (h); read-out: % Inhibition Mean) [%] | inhibition at 1 µM (D3 (h); read-out: % Inhibition 1st) [%] | inhibition at 1 µM (D3 (h); read-out: % Inhibition 2nd) [%] | inhibition at 1 µM (D3 (h); read-out: % Inhibition Mean) [%] | inhibition at 1 µM (D4.4 (h); read-out: % Inhibition 1st) [%] | inhibition at 1 µM (D4.4 (h); read-out: % Inhibition 2nd) [%] | inhibition at 1 µM (D4.4 (h); read-out: % Inhibition Mean) [%] | inhibition at 1 µM (H1 (h); read-out: % Inhibition 1st) [%] | inhibition at 1 µM (H1 (h); read-out: % Inhibition 2nd) [%] | inhibition at 1 µM (H1 (h); read-out: % Inhibition Mean) [%] | inhibition at 1 µM (MT3 (ML2); read-out: % Inhibition 1st) [%] | inhibition at 1 µM (MT3 (ML2); read-out: % Inhibition 2nd) [%] | inhibition at 1 µM (MT3 (ML2); read-out: % Inhibition Mean) [%] | inhibition at 1 µM (M5 (h); read-out: % Inhibition 1st) [%] | inhibition at 1 µM (M5 (h); read-out: % Inhibition 2nd) [%] | further results
Cn1c(=O)n(CCCO)c(=O)c2c1nc(Oc1cccc(Cl)c1)n2Cc1ccc(Cl)cc1 [HC-070] | -22.3 | -1.2 | -11.7 | 8.4 | 18.8 | 13.6 | 3.6 | 6.4 | 5 | -15.8 | -1.8 | -8.8 | -15.6 | -11.4 | -13.5 | 46.1 | 49.5 | 47.8 | -7.3 | 10.1 | IC50 (hTRPV1; 500 nM Capsaicin, read-out: IC50): > 1900 nM; IC50 (hTRPA1; 2-10 µM AITC, read-out: IC50): > 1900 nM; inhibition at 1 µM (M5 (h); read-out: % Inhibition Mean): 1.4%; inhibition at 1 µM (5-HT1A (h); read-out: % Inhibition 1st): 8.7%; inhibition at 1 µM (5-HT1A (h); read-out: % Inhibition 2nd): -24.2%; inhibition at 1 µM (5-HT1A (h); read-out: % Inhibition Mean): -7.7%; IC50 (Cav1.2): > 1900 nM
Cn1c(=O)n(CCCO)c(=O)c2c1nc(Oc1cccc(OC(F)(F)F)c1)n2Cc1ccc(Cl)cc1 [HC-608] | -7.4 | -0.7 | -4 | 27 | 25.5 | 26.2 | 4 | 9.7 | 6.9 | -20.4 | 3.4 | -8.5 | -8.1 | -0.9 | -4.5 | -0.7 | 1.2 | 0.2 | -15.6 | -12.8 | IC50 (hTRPV1): > 1640 nM; IC50 (hTRPA1): > 1640 nM; inhibition at 1 µM (M5 (h); read-out: % Inhibition Mean): -14.2%; inhibition at 1 µM (5-HT1A (h); read-out: % Inhibition 1st): -0.2%; inhibition at 1 µM (5-HT1A (h); read-out: % Inhibition 2nd): 14.8%; inhibition at 1 µM (5-HT1A (h); read-out: % Inhibition Mean): 7.3%; IC50 (Cav1.2): > 1640 nM
